The test has as its system CNXF U-87 MG. As to the kind of experiment: CellTiter-Blue 2D monolayer assay (Example 1), glioblastoma. Type of test: cell-based, human. Conditions: for Test/Control (%): 72 h. As to the method:
Compound 85 was assessed in 10 human tumor cell lines (see Table 3) for anti-cancer activity in vitro using a CellTiter-Blue® based 2D monolayer assay.
CellTiter-Blue® Cell Viability Assay: Tumor cells were grown at 37° C. in a humidified atmosphere with 5% CO2 in RPMI medium, supplemented with 10% (v/v) fetal calf serum and 50 μg/ml gentamicin (140 μl/well). Cultures were incubated at 37° C. and 5% CO2 in a humidified atmosphere. After 24 hours, 10 μl of Compound 85 was added, and left on the cells for another 72 hours (incubation period). Compound 85 was tested at 5 concentrations (0.003 μM, 0.03 μM, 0.3 μM, 3 μM, and 30 μM) and serially diluted in DMSO, mixed with cell culture medium, and added to the assay plates by using a Tecan Freedom EVO 200 robotic platform. The DMSO concentration was kept constant at 0.3% yip across the assay plate. Every 96 well plate included six DMSO-treated control wells and Compound 85-treated wells in duplicate at 5 concentrations. Viability of cells was quantified using the CellTiter-Blue® cell viability assay (Promega G8081). After incubation of cells, the CellTiter-Blue® reagent was brought to ambient temperature. Next, 20 μl of CellTiter-Blue® reagent were added to each well. After incubation tier up to 4 hours, fluorescence (FU) was measured using the EnSpire® multimode plate reader (Perkin Elmer) ([…]).
Data Evaluation: Sigmoidal concentration-response curves were fitted to the data points (test-versus-control; T/C values) obtained for each tumor model using 4 parameter non-linear curve fit (Charles River DRS Datawarehouse Software). Drug effects are expressed in terms of the percentage of the fluorescence signal, obtained by comparison of the mean signal in the treated wells with the mean signal of the untreated controls (T/C-value [%]) (Table 4). IC50 and IC70 values were reported as relative and absolute IC50 and IC70 values (Table 5). The absolute IC50 and IC70 values reflect the concentration of Compound 85 that achieves T/C=50% and T/C=30%, respectively. The relative IC50 value is the concentration of Compound 85 that gives a response half way between the top and bottom plateau of the sigmoidal concentration-response curve (inflection point of the curve).

Like-named read-outs stand apart in the source and are kept apart here.

Regarding `CC(C)(O)Cn1nc(-c2ccccc2)c2c(Cl)c(-c3ccccc3)nnc21` [Compound 85], the “Rel. IC70” value worked out at 987 nM. Further, the “Test/Control (%)” value (0.003 μM) is reported as 99%. In addition, the “Test/Control (%)” value (0.03 μM) is 102%. Besides, the “Test/Control (%)” value (0.3 μM) stood at 102%. The “Test/Control (%)” value (3 μM) is on record as 1%. For the setting “30 μM”, the “Test/Control (%)” value worked out at 4%. Moreover, under “T/C=30%”, the “Abs. IC70” value amounted to 994 nM. Besides, the IC50 (T/C=50%, read-out: Abs. IC50) is 940 nM. In addition, where the note is “bottom plateau of curve”, the “Bot. (%)” value amounted to 3%. Moreover, the IC50 (read-out: Rel. IC50) came out at 935 nM. For the same molecule, the “Top (%)” value (top plateau of curve) amounted to 101%.

One may read the IC50 as the concentration that gives 50% inhibition.

The record behind these values is US12544373B2, “Treatment of cancer, inflammatory diseases and autoimmune diseases” (Usher III Initiative, Inc., priority 2020, dated 2026).
